The text below walks through data of US11718626B2, “Macrocyclic compounds for treatment of medical disorders” (Achillion Pharmaceuticals, Inc., priority 2017, dated 2023).

Bounds are passed on as bounds.

Human Factor D (purified from human serum), sequence (P00746 26-253): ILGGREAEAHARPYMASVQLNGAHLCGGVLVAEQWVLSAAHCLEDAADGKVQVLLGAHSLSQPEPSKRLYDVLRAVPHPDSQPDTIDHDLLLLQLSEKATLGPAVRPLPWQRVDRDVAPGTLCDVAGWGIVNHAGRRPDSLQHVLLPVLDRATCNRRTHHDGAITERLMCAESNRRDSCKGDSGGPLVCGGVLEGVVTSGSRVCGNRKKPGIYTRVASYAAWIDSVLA

The target of the first assay is Human Factor D (purified from human serum) (Homo sapiens (Human), UniProt P00746). Kind of assay: Human Factor D Assay. It is filed as biochemical. The conditions noted are these: Human Factor D 80 nM, substrate Z-L-Lys-SBzl, assay of Example 2; read-out: IC50 (Stars). The protocol:
The assay of Example 2 was used to determine the IC50's of the compounds. Other standard Factor D inhibition assays are also available.
Human Factor D (purified from human serum, Complement Technology, Inc.) at 80 nM final concentration is incubated with test compound at various concentrations for 5 min at room temperature in 50 mM Tris, 1M NaCl, pH 7.5. A synthetic substrate Z-L-Lys-SBzl and DTNB (Ellman's reagent) are added to final concentrations of 100 μM each. Absorbance at 405 nm (A405) is recorded at 30 second intervals for 30 minutes using a microplate spectrophotometer. IC50 values are calculated by nonlinear regression of Complement Factor D reaction rates as a function of test compound concentration.
For “(41R,43S,45R)-42-(2-(3-acetyl-5-(2-methylpyrimidin-5-yl)-1H-indazol-1-yl)acetyl)-16-bromo-6-methyl-7-thia-42,6-diaza-1(2,3)-pyridina-4(3,5)-bicyclo[3.1.0]hexanacycloundecaphan-10-en-3-one 7,7-dioxide [Compound T-17]”, the concentration for half-maximal inhibition (IC50) is below 1000 nM.

Staying with this assay, now noted: Human Factor D 80 nM, substrate Z-L-Lys-SBzl; Table 6; read-out: IC50.
As to `CC(=O)c1nn2c3c(cc(-c4cnc(C)cn4)cc13)CC=CCCCC(=O)NC[C@@]13C[C@@H](C(=O)Nc4nc(C(F)(F)F)ccc4C)N(C(=O)C2)[C@@H]1C3` [Compound T-219, (41R,43S,45R)-13-acetyl-N-(3-methyl-6-(trifluoromethyl)pyridin-2-yl)-15-(5-methylpyrazin-2-yl)-3,7-dioxo-11H-42,6-diaza-1(1,7)-indazola-4(2,5)-bicyclo[3.1.0]hexanacyclotridecaphan-11-ene-43-carboxamide], the IC50 is below 1000 nM. For `CC(=O)c1nn2c3c(cc(-c4cnc(C)nc4)cc13)CCCCCCC(=O)NC[C@@]13C[C@@H](C(=O)Nc4nc(Br)ccc4F)N(C(=O)C2)[C@@H]1C3` [Compound T-230, (41R,43S,45R)-13-acetyl-N-(6-bromo-3-fluoropyridin-2-yl)-15-(2-methylpyrimidin-5-yl)-3,7-dioxo-11H-42,6-diaza-1(1,7)-indazola-4(2,5)-bicyclo[3.1.0]hexanacyclotridecaphane-43-carboxamide], the IC50 was below 1000 nM. Still for that read-out and setting: the value for `CC(=O)c1nn2c3c(cc(-c4cnc(C)nc4)cc13)CCCCCCC(=O)NC[C@@]13C[C@@H](C(=O)Nc4cc(Br)ccc4C4CC4)N(C(=O)C2)[C@@H]1C3` [Compound T-212, (41R,43S,45R)-13-acetyl-N-(6-bromo-3-cyclopropylpyridin-2-yl)-15-(2-methylpyrimidin-5-yl)-3,7-dioxo-11H-42,6-diaza-1(1,7)-indazola-4(2,5)-bicyclo[3.1.0]hexanacyclotridecaphane-43-carboxamide] was below 1000 nM.

Staying with this assay, now noted: Human Factor D 80 nM, substrate Z-L-Lys-SBzl; Table 6; read-out: IC50 (Stars).
Take `CC(=O)c1nn2c3c(nc(-c4cnc(C)nc4)cc13)CCCCCC(=O)NC[C@@]13C[C@@H](C(=O)Nc4nc(C(F)(F)F)ccc4C)N(C(=O)C2)[C@@H]1C3` [Compound T-124, (41R,43S,45R)-13-acetyl-N-(3-methyl-6-(trifluoromethyl)pyridin-2-yl)-15-(2-methylpyrimidin-5-yl)-3,7-dioxo-11H-42,6-diaza-1(1,7)-pyrazolo[3,4-c]pyridina-4(2,5)-bicyclo[3.1.0]hexanacyclododecaphane-43-carboxamide]: the IC50 was below 1000 nM. Still for that read-out and setting: in the case of `CC(=O)c1nn2c3c(cc(-c4cnc(C)nc4)cc13)CCCCCC(C)(C)C(=O)N(C)C[C@@]13C[C@@H](C(=O)Nc4nc(C(F)(F)F)ccc4C)N(C(=O)C2)[C@@H]1C3` [Compound T-186, (41R,43S,45R)-13-acetyl-6,8,8-trimethyl-N-(3-methyl-6-(trifluoromethyl)pyridin-2-yl)-15-(2-methylpyrimidin-5-yl)-3,7-dioxo-11H-42,6-diaza-1(1,7)-indazola-4(2,5)-bicyclo[3.1.0]hexanacyclotridecaphane-43-carboxamide] it was below 1000 nM; in that of `Cc1ncc(-c2cc3c(C#N)nn4c3c(n2)CCCC=CCOC[C@@]23C[C@@H](C(=O)Nc5nc(C(F)(F)F)ccc5C)N(C(=O)C4)[C@@H]2C3)cn1` [Compound T-154, (41R,43S,45S)-13-cyano-N-(3-methyl-6-(trifluoromethyl)pyridin-2-yl)-15-(2-methylpyrimidin-5-yl)-3-oxo-11H-6-oxa-42-aza-1(1,7)-pyrazolo[3,4-c]pyridina-4(2,5)-bicyclo[3.1.0]hexanacyclododecaphan-8-ene-43-carboxamide], below 1000 nM. On the same count and under the same terms, the value for `CC(=O)c1cn2c3c(cc(-c4cnc(C)nc4)cc13)CCCCCCC(=O)NC[C@@]13C[C@@H](C(=O)Nc4nc(C(F)(F)F)ccc4C)N(C(=O)C2)[C@@H]1C3` [Compound T-159, (41R,43S,45R)-13-acetyl-N-(3-methyl-6-(trifluoromethyl)pyridin-2-yl)-15-(2-methylpyrimidin-5-yl)-3,7-dioxo-11H-42,6-diaza-1(1,7)-indola-4(2,5)-bicyclo[3.1.0]hexanacyclotridecaphane-43-carboxamide] was below 1000 nM. In the case of `CC(=O)c1nn2c3c(nc(-c4cnc(C)nc4)cc13)CCCCCCC(=O)NC[C@@]13C[C@@H](C(=O)Nc4nc(Br)ccc4C)N(C(=O)C2)[C@@H]1C3` [Compound T-166, (41R,43S,45R)-13-acetyl-N-(6-bromo-3-methylpyridin-2-yl)-15-(2-methylpyrimidin-5-yl)-3,7-dioxo-11H-42,6-diaza-1(1,7)-pyrazolo[3,4-c]pyridina-4(2,5)-bicyclo[3.1.0]hexanacyclotridecaphane-43-carboxamide], the IC50 is below 1000 nM.
